Source: US11884636B2, “Gonadotropin releasing hormone receptor antagonist and use thereof” (SHIJIAZHUANG YILING PHARMACEUTICAL CO., LTD., priority 2020, dated 2024)
pIC50: −log10 of the molar value. “Also recorded” adds a separate entry of the source. Like-named read-outs stand apart in the source and are kept apart here.

Experiments:
[1] = mice, dose of 10 mg/kg; cited from earlier work
[2] = rats; cited from earlier work
[3] = monkeys; cited from earlier work
[4] = rats, oral radiolabeled Elagolix; cited from earlier work
[5] = human bodies; cited from earlier work
[6] = Rat pharmacokinetic assay; type: in vivo; details: SD rats; for F (absolute bioavailability) / bioavailability: oral gavage 50 mg/kg vs intravenous 25 mg/kg; for bioavailability / AUC(0-inf) / Cmax / Tmax / AUC(0-t) / clearance / Vd: female, rat, plasma; for bioavailability: SD, oral, 50 mg/kg, read-out: F (absolute bioavailability); for AUC(0-t): read-out: AUC0-24 h; for clearance: read-out: CLz (clearance rate) (converted); for Vd: read-out: Vz (apparent volume of distribution)
Description: 12 female SD rats, divided into four groups of three per group, were administrated G201 (dissolved in saline containing 5% N,N-dimethylacetamide and 5% cremophor ELL) and Elagolix Sodium (dissolved directly in saline) intravenously and by gavage at doses of 25 mg/kg and 50 mg/kg, respectively. Food was fasted overnight before administration and resumed 4 h after administration, with free access to water throughout the assay period. Blood was collected from the retro-orbital venous plexus before and 5, 15, 30 min, 1, 2, 4, 6, 8, 24 h after administration, and the volume of blood collected was approximately 0.2 mL. A whole blood sample centrifuged at 4000 rpm for 10 min within 1 h from collection. The upper layer of plasma was separated and stored in a refrigerator at minus 20° C. within 1 h until analysis. After the plasma sample were precipitated by methanolic protein at 1:8, G201 and Elagolix plasma concentrations were measured by an LC-MS/MS method, and main pharmacokinetic parameters were calculated by applying DAS3.2.7 software.

[7] = tested on: serum luteinizing hormone (LH); test: Pharmacodynamic assay in male emasculated cynomolgus monkeys (serum LH); type: in vivo
Description: Three male cynomolgus monkeys (purchased from Guangxi GuiDong Quadrumana Development & Laboratory Co., Ltd.), 3 to 5 years old (weight 3.8 to 4.0 kg), were fasted overnight and underwent bilateral orchiectomy under anesthesia. Serum luteinizing hormone (LH) was measured in the cynomolgus monkeys from 3 to 7 weeks after emasculation using radioimmunoassay.
After successful emasculation surgical modeling, G201 and Elagolix Sodium (dissolvent: 0.5% CMC-Na) were given in 2 administration cycles by single oral gavage at doses of 10 mg/kg and 30 mg/kg, respectively, both in a volume of 10 mL/kg. Each administration cycle was separated by an elution period of approximately 2 weeks. For each cycle of administration, blood was collected before and 0.25, 0.5, 1, 2, 3, 6, 8 and 24 h after administration, respectively, and serum was separated for gonadal hormone LH assay.

[8] = target: T1, recombinant human gonadotropin-releasing hormone receptor (GnRHR) (Homo sapiens, UniProt P30968); test: FLIPR calcium flux assay in CHO-K1/GNRHR/Gα15 cells; type: cell-based; details: Buserelin EC80 agonist, read-out: EC50, inhibition of intracellular calcium release
T1 construct: expressed in transfected cells
T1 sequence (P30968 1-328): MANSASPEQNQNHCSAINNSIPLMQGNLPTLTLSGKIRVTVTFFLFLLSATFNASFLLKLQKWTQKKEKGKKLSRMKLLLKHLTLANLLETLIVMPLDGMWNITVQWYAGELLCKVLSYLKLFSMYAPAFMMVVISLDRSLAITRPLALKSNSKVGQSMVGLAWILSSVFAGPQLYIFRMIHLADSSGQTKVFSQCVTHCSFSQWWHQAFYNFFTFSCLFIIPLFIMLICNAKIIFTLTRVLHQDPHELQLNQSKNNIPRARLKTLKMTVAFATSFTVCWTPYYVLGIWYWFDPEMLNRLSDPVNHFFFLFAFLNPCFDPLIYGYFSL
Description: Intracellular calcium changes of cell line CHO-K1/GNRHR/Gα15 that is stable of a recombinant human gonadotropin-releasing hormone receptor (GnRHR) were measured using an FLIPR calcium flux assay kit (Calcium 4 assay kit). GnRHR is a G protein-coupled receptor (GPCRs), and a GPCRs signal enabled intracellular calcium release through a Gq pathway. Therefore, functional changes of GnRHR, which carried out signal transduction through the Gq pathway, can be detected by detecting intracellular calcium release with a calcium-sensitive fluorescent probe. The assay steps were as follows: • 1. Cells were seeded in 384-well plates (Corning, Cat #:3764) at a density of 10,000 cells/well with an F12+10% FBS medium (20 μl/well) and cultured overnight (18 h). • 2. A dye working solution was prepared from a probenecid stock solution (500 mM) and a Calcium 4 stock solution mixed at 1:100. A sample to be tested G201 and Elagolix (2 mM in DMSO) was diluted with an assay buffer, specifically, 5 μl of 2 mM stock solution was taken and diluted to 200 μl (50 μM) to obtain a 5× sample working solution of a first concentration. 20 μl of the 5× sample working solution was taken and diluted to 200 μl, and after even mixing, a sample working solution of a second concentration was obtained. A total of eight gradient dilutions of sample working solutions were prepared respectively. […]

[9] = Mouse pharmacokinetic assay; type: in vivo; details: ICR mice
Description: 10 female ICR mice, divided into two groups of five per group, were administrated G201 intravenously and by oral gavage, respectively, at a dose of 10 mg/kg. Blood was collected from the retro-orbital venous plexus 0.083, 0.25, 0.5, 1, 2, 4, 6, 8 h after administration, and the volume of blood collected was approximately 0.1 mL. A blood sample was centrifuged at 4000 rpm for 10 min within 1 h. The upper layer of plasma was separated and stored in a refrigerator at minus 80° C. within 1 h to be measured. The subject animals were fasted for at least 12 h before blood collection and were not water fasted. Food and water were fasted during blood collection and free 2 h after administration. The plasma concentration of G201 in the ICR mice was measured by an LC-MS/MS method, and main pharmacokinetic parameters were calculated by applying DAS 3.2.7 pharmacokinetic software and include AUC0-4, AUC0-∞, Cmax, t1/2, etc.

[10] = female, mouse, plasma, intravenous injection 10 mg/kg
[11] = female, mouse, plasma, oral administration 10 mg/kg

t1/2z ([6]; intravenous injection 25 mg/kg) | t1/2z ([6]; oral gavage 50 mg/kg) | F (absolute bioavailability) [6] | bioavailability [6] | AUC(0-inf) ([6]; intravenous injection 25 mg/kg) | Cmax ([6]; intravenous injection 25 mg/kg) | Tmax ([6]; intravenous injection 25 mg/kg) | AUC(0-t) ([6]; intravenous injection 25 mg/kg) | clearance ([6]; intravenous injection 25 mg/kg) | Vd ([6]; intravenous injection 25 mg/kg) | AUC(0-inf) ([6]; oral gavage 50 mg/kg) | Cmax ([6]; oral gavage 50 mg/kg) | Tmax ([6]; oral gavage 50 mg/kg) | AUC(0-t) ([6]; oral gavage 50 mg/kg) | SMILES | further results
– | – | – | – | – | – | – | – | – | – | – | – | – | – | COc1cccc(-c2c(C)n(Cc3c(F)cccc3C(F)(F)F)c(=O)n(C[C@H](NCCCC(=O)[O-])c3ccccc3)c2=O)c1F.[Na+] [Elagolix, Sodium R-(+)-4-{2-[5-(2-Fluoro-3-methoxyphenyl)-3-(2-fluoro-6-[trifluoromethyl]-benzyl)-4-methyl-2,6-dioxo-3,6-dihydro-2H-pyrimidin-1-yl]-1-phenylethylamino}butyrate] | absolute bioavailability [1]: 10%; absolute oral bioavailability [2]: 5.8%; absolute oral bioavailability [3]: 11%; total radioactivity excreted through the bile [4]: ~50%; apparent volume of distribution [5]: 1674 L
130 min | 272 min | 23.7% | 23.6% | 10200 ng·h/mL | 15600 ng/mL | 4.8 min | 10200 ng·h/mL | 41.3 mL/min/kg | 8.46 L/kg | 4870 ng·h/mL | 4660 ng/mL | 25.2 min | 4830 ng·h/mL | COc1cccc(-c2c(C)n(Cc3c(F)cccc3C(F)(F)F)c(=O)n(C[C@H](NCCCC(=O)[O-])c3ccccc3)c2=O)c1F.[Na+] [Elagolix Sodium, Sodium R-(+)-4-{2-[5-(2-Fluoro-3-methoxyphenyl)-3-(2-fluoro-6-[trifluoromethyl]-benzyl)-4-methyl-2,6-dioxo-3,6-dihydro-2H-pyrimidin-1-yl]-1-phenylethylamino}butyrate, reference compound] | general condition, weight and abnormalities during the assay period ([7]; single oral gavage 30 mg/kg): no subject-related abnormalities were observed; serum LH change after administration ([7]; single oral gavage 30 mg/kg): decreased significantly; time at which serum LH returned to the pre-administration level ([7]; single oral gavage 30 mg/kg): 24 h; time of serum LH minimum after administration ([7]; single oral gavage 30 mg/kg): 3 h
47.4 min | 282 min | 51.9% | 51.9% | 15700 ng·h/mL | 27200 ng/mL | 4.8 min | 15700 ng·h/mL | 27 mL/min/kg | 1.82 L/kg | 16400 ng·h/mL | 17000 ng/mL | 25.2 min | 16300 ng·h/mL | COc1cccc(-c2c(C)n(Cc3c(F)cccc3C(F)(F)F)c(=O)n(C[C@H](NCCCC(=O)O)c3ccccc3F)c2=O)c1F [Compound G201] | pIC50 [8]: 7.42; oral AUC0-∞ relative to that of Elagolix Sodium ([6]; oral gavage 50 mg/kg): three times; CLz ([9]; intravenous injection 10 mg/kg): 53 mL/min/kg; t1/2z ([9]; intravenous injection 10 mg/kg): 15.6 min; t1/2z ([9]; oral administration 10 mg/kg): 25.8 min; AUC(0-inf) [9, 10]: 3250 ng·h/mL; AUC(0-t) [9, 10]: 3240 ng·h/mL; Vd ([9]; female, mouse, plasma, intravenous injection 10 mg/kg, read-out: Vz): 1.17 L/kg; AUC(0-inf) [9, 11]: 1270 ng·h/mL; AUC(0-t) [9, 11]: 1010 ng·h/mL; Cmax [9, 11]: 2000 ng/mL; Tmax [9, 11]: 16.2 min; bioavailability ([9]; female, mouse, plasma, oral administration 10 mg/kg vs intravenous 10 mg/kg, read-out: F (absolute bioavailability)): 38.9%; general condition, weight and abnormalities during the assay period ([7]; single oral gavage 10 mg/kg): no subject-related abnormalities were observed; serum LH change after administration ([7]; single oral gavage 10 mg/kg): decreased significantly; time of serum LH minimum after administration ([7]; single oral gavage 10 mg/kg): 3 h; serum LH inhibitory effect compared with 30 mg/kg Elagolix Sodium ([7]; single oral gavage 10 mg/kg G201): slightly higher magnitude of change; also recorded: comparable or superior
